These results are taken from article PMC8552062, “Contributions of UDP-Glucuronosyltransferases to Human Hepatic and Intestinal Metabolism of Ticagrelor and Inhibition of UGTs and Cytochrome P450 Enzymes by Ticagrelor and its Glucuronidated Metabolite” (Frontiers in Pharmacology, 2021).

The microsomal CLint is the rate of metabolic loss divided by the concentration.

Each structure is given as a SMILES string.

The target in one series is T1, UGT1A7 (Homo sapiens, UniProt Q9HAW7).
T1 construct: purchased BD Gentest; host or cells: baculovirus-infected insect cells
T1 sequence (Q9HAW7 26-530): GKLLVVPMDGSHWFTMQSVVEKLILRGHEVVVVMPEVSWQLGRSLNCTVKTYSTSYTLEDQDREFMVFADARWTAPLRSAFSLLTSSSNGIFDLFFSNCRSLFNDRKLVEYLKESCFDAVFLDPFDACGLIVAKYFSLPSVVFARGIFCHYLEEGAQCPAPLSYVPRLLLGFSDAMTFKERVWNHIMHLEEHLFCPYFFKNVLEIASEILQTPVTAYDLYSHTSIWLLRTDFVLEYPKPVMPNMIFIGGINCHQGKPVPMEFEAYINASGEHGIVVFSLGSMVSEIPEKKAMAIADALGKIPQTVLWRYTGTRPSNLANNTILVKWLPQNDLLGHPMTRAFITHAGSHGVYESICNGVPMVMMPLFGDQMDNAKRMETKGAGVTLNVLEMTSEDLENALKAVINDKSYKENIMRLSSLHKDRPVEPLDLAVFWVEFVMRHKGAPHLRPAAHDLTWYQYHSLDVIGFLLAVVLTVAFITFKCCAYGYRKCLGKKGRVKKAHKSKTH
The experiment in a line: Ticagrelor glucuronidation by recombinant human UGT1A7. Type of series: in vitro ADME. Conditions: recombinant human UGT1A7, pH 7.4. How it is done:
(§1) Ticagrelor glucuronidation was investigated in an in vitro incubation system by using HLM, HIM, and recombinant human UGTs. The incubation system consisted of enzyme sources (HLM, HIM, or human recombinant UGTs), various concentrations of ticagrelor (dissolved in 50% methanol, 1% v/v, 1, 2, 5, 10, 20, 50, 100, 200, 500 μM of final concentration), alamethicin (50 μg/mg protein), 5 mM MgCl2, 100 mM tris-HCL buffer (pH 7.4), and 5 mM UDPGA in a total volume of 100 μl. Alamethicin is a pore-forming polypeptide used to activate UGTs in HLM and HIM ([Fisher et al., 2000]). Preliminary studies were conducted to determine the optimal protein concentrations and incubation times. Linear conditions of ticagrelor-O-Glu formation from ticagrelor, i.e., HLM, 0.2 mg of protein/ml and 60 min, HIM, 0.2 mg of protein/ml and 60 min, and recombinant human UGTs, 0.2 mg of protein/ml and 60 min were selected. The incubation mixture without UDPGA was placed on ice for 15 min to activate UGT by alamethicin. […]
(§2) Kinetic analyses were performed using the mean values of triplicate determinations with either pooled HLM, HIM, or recombinant human UGTs. All data were analyzed by nonlinear regression analysis using the GraphPad Prism 6 (GraphPad Software Inc., CA, United States). […] Intrinsic clearance (CLint) was calculated by dividing Vmax by Km.

A further series addresses T2, UGT1A4 (Homo sapiens, UniProt P22310).
T2 sequence (P22310 29-534): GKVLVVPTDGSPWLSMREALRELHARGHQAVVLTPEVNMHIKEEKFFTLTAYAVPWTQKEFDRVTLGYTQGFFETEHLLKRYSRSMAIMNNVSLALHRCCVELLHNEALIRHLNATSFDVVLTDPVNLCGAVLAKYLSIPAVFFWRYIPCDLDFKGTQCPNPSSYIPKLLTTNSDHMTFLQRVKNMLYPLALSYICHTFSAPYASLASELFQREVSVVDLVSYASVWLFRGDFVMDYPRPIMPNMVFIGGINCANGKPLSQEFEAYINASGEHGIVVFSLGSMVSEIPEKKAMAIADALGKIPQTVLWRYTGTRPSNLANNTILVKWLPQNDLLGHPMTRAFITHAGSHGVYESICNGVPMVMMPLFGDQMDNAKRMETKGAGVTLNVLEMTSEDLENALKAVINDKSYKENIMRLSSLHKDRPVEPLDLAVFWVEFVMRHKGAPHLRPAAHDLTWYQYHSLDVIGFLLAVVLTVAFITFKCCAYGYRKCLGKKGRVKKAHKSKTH
Briefly: Ticagrelor glucuronidation by recombinant human UGT1A4. Type of series: in vitro ADME. Set-up: purchased BD Gentest; host or cells: baculovirus-infected insect cells. The conditions noted are these: recombinant human UGT1A4, pH 7.4. As to the method: as §1, §2

For the compound `CCCSc1nc(N[C@@H]2C[C@H]2c2ccc(F)c(F)c2)c2nnn([C@@H]3C[C@H](OCCO)[C@@H](O)[C@H]3O)c2n1` [Ticagrelor], the microsomal CLint on UGT1A7 is 0.07 µL/min/mg; on UGT1A4, 0.04 µL/min/mg.
